Assay results as given in PubChem BioAssay (NCI).
“And” between values parts separate entries of the source, which are not always exact repeats. Equal values may be shown once.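 Following 48 hours of exposure in 96-well plates, responses at five concentrations were used to interpolate endpoints linearly. At the GI50, growth is halved. At the TGI there is no net growth.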 Numbered stars: 1 amine (or outer) side, 2 acyl side, 3 side chain; on linkers, the order of the positions; unused ones are H or OH. Bridge positions count the residues as written; N and C are the ends. Square brackets hold non-standard residues; d marks the D form. Peptide text beside a SMILES is read from it. I, II: the chains in the order shown. Actinocin(1to9) = Cc1c2oc3c(C)ccc(C(=O)[*:2])c3nc-2c(C(=O)[*:1])c(N)c1=O; NMeY = CN[CH](Cc1ccc(O)cc1)C(=O)O; Sar = CNCC(=O)O

Columns and labels:
Experiment in all cases: inhibition of tumour cell growth, NCI panel, 48 h
HCT-15 colon = system: HCT-15 colon
HL-60(TB) leukemia = system: HL-60(TB) leukemia
K-562 leukemia = system: K-562 leukemia
MALME-3M melanoma = system: MALME-3M melanoma
NCI-H23 lung = system: NCI-H23 lung
NCI-H522 lung = system: NCI-H522 lung
NCI/ADR-RES ovarian = system: NCI/ADR-RES ovarian
SF-539 CNS = system: SF-539 CNS
SK-MEL-2 melanoma = system: SK-MEL-2 melanoma
UACC-257 melanoma = system: UACC-257 melanoma

Row | Structure (SMILES) | GI50 (HCT-15 colon) | TGI (HCT-15 colon) | GI50 (HL-60(TB) leukemia) | TGI (HL-60(TB) leukemia) | GI50 (K-562 leukemia) | TGI (K-562 leukemia) | GI50 (MALME-3M melanoma) | TGI (MALME-3M melanoma) | GI50 (NCI-H23 lung) | TGI (NCI-H23 lung) | GI50 (NCI-H522 lung) | TGI (NCI-H522 lung) | GI50 (NCI/ADR-RES ovarian) | GI50 (SF-539 CNS) | TGI (SF-539 CNS) | GI50 (SK-MEL-2 melanoma) | TGI (SK-MEL-2 melanoma) | GI50 (UACC-257 melanoma) | TGI (UACC-257 melanoma) | TGI (NCI/ADR-RES ovarian)
1 | Nc1cccc2c1C(=O)c1cccc(NC(=O)c3ccccc3)c1C2=O | 0.448 µM | > 100 µM | 0.292 µM | > 100 µM | 0.133 µM | > 100 µM | 0.242 µM | 7.09 µM | 0.903 µM | > 100 µM | 0.0655 µM | 0.618 µM | 0.212 µM | 0.292 µM | 13 µM | 0.25 µM | 7.26 µM | 0.614 µM | 64.8 µM | 
2 | N#Cc1cccc(N2C(=O)C3C4C=CC(C3C2=O)C2C(=O)N(c3cccc(C#N)c3)C(=O)C42)c1 (stereo not given) |  | > 63.1 µM |  | > 100 µM |  | 55.8 µM |  | 99.4 µM |  | 52.5 µM |  | 38.2 µM |  |  | 61.4 µM |  | 34.7 µM |  | > 63.1 µM | > 100 µM
3 | COc1ccc(CC2C(=O)OC(C)C(NC(=O)c3c4nc5c(C(=O)NC6C(=O)NC(C(C)C)C(=O)N7CCCC7C(=O)N(C)CC(=O)N(C)C(Cc7ccc(OC)cc7)C(=O)OC6C)ccc(C)c5oc-4c(C)c(=O)c3N)C(=O)NC(C(C)C)C(=O)N3CCCC3C(=O)N(C)CC(=O)N2C)cc1 (stereo not given) (I: TVP[Sar][NMeY](Me) / II: TVP[Sar][NMeY](Me); ester I:1-I:C, II:1-II:C; linker I:N-II:N via Actinocin(1to9); configuration not given here) |  | > 1 µM | 0.00154 µM | 0.0515 µM | < 0.01 µM and 0.0039 µM | < 0.01 µM |  |  |  |  | 0.00264 µM | 0.018 µM | 0.0901 µM and > 0.863 µM |  |  | < 0.01 µM and 0.0228 µM |  |  |  | 11.5 µM and > 1 µM
4 | CS(=O)(=O)N(c1cc(-c2ccc3ncnc(Nc4ccc(F)c(Cl)c4)c3c2)cnc1Cl)S(C)(=O)=O | 0.945 µM | 13.9 µM | 0.49 µM | 5.35 µM | 2.45 µM | > 100 µM | 0.267 µM | 2.12 µM | 0.861 µM | 5.15 µM | 1.57 µM | 11.1 µM | 2.54 µM | 1.05 µM | 4.83 µM | 1.16 µM | 4.01 µM | 1.11 µM | 14.5 µM | 20.9 µM
5 | COC(C)C(O)(C(=O)OCC1=CCN2CCC(O)C12)C(C)(C)O (stereo not given) |  | > 100 µM |  | > 100 µM |  |  |  | > 100 µM |  | > 100 µM |  | > 100 µM |  |  | > 100 µM |  | > 100 µM |  | > 100 µM | > 100 µM
6 | CC/C(=C/c1ccc(OC)cc1OC)[N+](=O)[O-] | 1.87 µM | 4.54 µM | 2.6 µM | 7.93 µM | 2.91 µM | 61.5 µM | 1.91 µM | 4.93 µM | 4.51 µM | 20.1 µM | 1.79 µM | 3.58 µM | 3.17 µM | 2.27 µM | 4.73 µM | 2.64 µM | 8.73 µM | 2.31 µM | 6.29 µM | 12.6 µM
7 | Nc1ccc(/C=C/c2ccc3cccnc3c2)cc1 |  | > 100 µM |  | > 100 µM |  | > 100 µM |  | > 100 µM |  | > 100 µM |  |  |  |  | > 100 µM |  |  |  | > 100 µM | > 100 µM
8 | CN(N)c1nc(N)c(C#N)c(C#N)c1C#N |  | > 10 µM |  | > 10 µM |  | > 10 µM |  | > 10 µM |  | > 10 µM |  | > 10 µM |  |  | > 10 µM |  |  |  | > 10 µM | > 10 µM
